Assay results reported in patent US7777041B2, “2-acylamino-4-phenylthiazole derivatives, preparation thereof and therapeutic application thereof” (sanofi-aventis, priority 2003, dated 2010).
Where two headings read alike, the source gives them in different places.

Key:
HIV-1 Bal virus = assay: Inhibitory activity on PBMCs infected with HIV-1 Bal virus (reverse transcriptase content in supernatant); format: cell-based; conditions: 5 days exposure, read-out: IC50 of inhibition of HIV-1 Bal replication in PBMCs
Procedure: The inhibitory activity of the compounds according to the invention on PBMCs (peripheral blood mononuclear cells) infected with the HIV-1 Bal virus was also measured, according to a technique adapted from that described by V. Dolle et al., J. Med. Chem., 2000, 43, 3949, 3962. According to this technique, the PMBCs are infected with HIV-1 Bal and the test compounds are then added to the culture medium for 5 days. At the end of this exposure, the content of reverse transcriptase, which is correlated with the level of viral replication in the cells, is measured in the supernatant.
Under these conditions, AZT, a reference molecule which inhibits viral replication, has an IC50 value of less than 0.1 μM.

human CCR2b receptor = target: T1, human CCR2b receptor (Homo sapiens, UniProt P41597); assay: Inhibitory activity on cells expressing the human CCR2b receptor; format: cell-based
T1 sequence (P41597 1-360 isoform P41597-2): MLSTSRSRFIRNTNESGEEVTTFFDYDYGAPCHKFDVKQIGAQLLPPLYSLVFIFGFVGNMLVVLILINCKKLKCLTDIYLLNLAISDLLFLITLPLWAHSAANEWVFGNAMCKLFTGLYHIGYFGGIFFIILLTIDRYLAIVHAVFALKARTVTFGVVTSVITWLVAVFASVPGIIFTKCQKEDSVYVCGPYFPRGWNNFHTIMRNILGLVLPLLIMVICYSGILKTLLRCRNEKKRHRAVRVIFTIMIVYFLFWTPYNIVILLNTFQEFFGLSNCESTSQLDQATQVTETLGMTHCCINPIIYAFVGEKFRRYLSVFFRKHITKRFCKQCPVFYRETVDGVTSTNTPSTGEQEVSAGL
Procedure: The inhibitory activity of the compounds according to the invention on cells expressing the human CCR2b receptor was measured.

human THP-1 monocytes = assay: Inhibition of chemotaxis on human THP-1 monocytes (adapted from Albini et al.); format: cell-based; conditions: hMCP-1
Procedure: The inhibition of chemotaxis was also measured on human THP-1 monocytes (sold by DSMZ-Germany) using a technique adapted from that described by A. Albini et al., Cancer Res., 1987, 47, 3239-3245. Under these conditions, hMCP-1 has an IC50 value of 6 nM.
The inhibition of chemotaxis by the compounds according to the invention is a sign of their antagonist activity on the chemokine receptors and in particular CCR2b.

[1] = read-out: IC50 of inhibitory activity on cells expressing the human CCR2b receptor

Compound: CCCCc1ccc(OC)c(-c2csc(NC(=O)c3ccc(C(=O)N4CCC(NC5CCOCC5)CC4)cc3)n2)c1.Cl.Cl [68]
- melting point: 181 to 189 °C

Compound: Cc1cn([C@H]2C[C@H](N=[N+]=[N-])[C@@H](CO)O2)c(=O)[nH]c1=O [AZT]
- IC50 (HIV-1 Bal virus): < 100 nM

Compound: CCOc1ccc(OCC)c(-c2csc(NC(=O)c3ccc(OCCN(CC)CC)cc3)n2)c1 [compound 12]
- IC50 (human CCR2b receptor; [1]): 81 nM

Compound: CCCCc1ccc(OC)c(-c2csc(NC(=O)c3ccc(CCCNC4CCOCC4)cc3)n2)c1 [compound 182, N-[4-(5-Butyl-2-methoxyphenyl)-1,3-thiazol-2-yl]-4-[3-(tetrahydro-2H-pyran-4-ylamino)propyl]benzamide]
- melting point: 150 °C

Compound: CCCc1ccc(OC)c(-c2csc(NC(=O)c3ccc(C(=O)N4CCC(N5CC[C@@H](N(C)C)C5)CC4)cc3)n2)c1 [compound 203]
- IC50 (human CCR2b receptor; [1]): 93 nM

Compound: CCOc1ccc(C2CCCCC2)cc1-c1csc(NC(=O)c2ccc(C(=O)N3CCC(=O)CC3)cc2)n1 [compound 244]
- IC50 (human CCR2b receptor; [1]): 88 nM
- melting point: 236 °C

Compound: hMCP-1: "hMCP-1 (human monocyte chemotactic protein), which belongs to the group of CC chemokines and whose actions are mediated by the CCR2b receptor"
- IC50 (human THP-1 monocytes): 6 nM
- IC50 (human CCR2b receptor; natural agonist, read-out: concentration of natural agonist hMCP-1 that inhibits 50% (IC50) of the activity of the CCR2b receptor): 0.57 nM
